Laboratory results: ChEMBL document CHEMBL1201862, “PubChem BioAssay data set” (2004)
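Cultured in 96-well plates, cells were exposed to test compound for 48 hours across five concentrations. At the GI50, growth is halved.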 Active and inactive are the calls of the source. Rule as the data show it: active = GI50 up to about 1.1 µM and inactive = higher.

Legend:
Test in all cases: DTP human tumour cell line panel, 48 h
786-0 = system: 786-0
A498 = system: A498
A549 = system: A549
ACHN = system: ACHN
CAKI-1 = system: CAKI-1
CCRF-CEM = system: CCRF-CEM
COLO 205 = system: COLO 205
DLD-1 = system: DLD-1
DMS-114 = system: DMS-114
DMS-273 = system: DMS-273
HCC 2998 = system: HCC 2998
HCT-116 = system: HCT-116
HCT-15 = system: HCT-15
HL-60 = system: HL-60
HOP-18 = system: HOP-18
HOP-62 = system: HOP-62
HOP-92 = system: HOP-92
HT-29 = system: HT-29
IGROV-1 = system: IGROV-1
K562 = system: K562
LOX IMVI = system: LOX IMVI
LXFL 529 = system: LXFL 529
M14 = system: M14
M19-MEL = system: M19-MEL
MOLT-4 = system: MOLT-4
Malme-3M = system: Malme-3M
NCI-H226 = system: NCI-H226
NCI-H23 = system: NCI-H23
NCI-H460 = system: NCI-H460
OVCAR-3 = system: OVCAR-3
OVCAR-4 = system: OVCAR-4
OVCAR-5 = system: OVCAR-5
OVCAR-8 = system: OVCAR-8
RPMI-8226 = system: RPMI-8226
RXF 631 = system: RXF 631
SF-268 = system: SF-268
SF-295 = system: SF-295
SK-MEL-28 = system: SK-MEL-28
SK-MEL-5 = system: SK-MEL-5
SK-OV-3 = system: SK-OV-3
SN12C = system: SN12C
SNB-19 = system: SNB-19
SR = system: SR
SW-620 = system: SW-620
TK-10 = system: TK-10
U-251 = system: U-251
UACC-257 = system: UACC-257
UACC-62 = system: UACC-62
UO-31 = system: UO-31
EKVX = system: EKVX
KM-20L2 = system: KM-20L2
KM12 = system: KM12
NCI-H522 = system: NCI-H522
RXF 393 = system: RXF 393
SF-539 = system: SF-539
SK-MEL-2 = system: SK-MEL-2
SNB-78 = system: SNB-78
XF498 = system: XF498

`CCOC(=O)C12CC1(C(=O)OCC)C1CCC2C1` (stereo not given) was tested, and the GI50 (786-0) was > 100 µM (inactive), the GI50 (A498) was > 100 µM (inactive) and the GI50 (A549) was > 100 µM (inactive). For the same molecule, the GI50 (ACHN) was > 100 µM (inactive), the GI50 (CAKI-1) was > 100 µM (inactive) and the GI50 (CCRF-CEM) was > 100 µM (inactive). The GI50 (COLO 205) was > 100 µM (inactive), the GI50 (DLD-1) was > 100 µM (inactive) and the GI50 (DMS-114) was 74.3 µM (inactive). The GI50 (DMS-273) was > 100 µM (inactive), the GI50 (HCC 2998) was > 100 µM (inactive) and the GI50 (HCT-116) was > 100 µM (inactive). The GI50 (HCT-15) was over 100 µM, the GI50 (HL-60) was 71.6 µM (inactive) and the GI50 (HOP-18) was > 100 µM (inactive). For the same molecule, the GI50 (HOP-62) was > 100 µM (inactive), the GI50 (HOP-92) was 23.8 µM (inactive) and the GI50 (HT-29) was > 100 µM (inactive). The GI50 (IGROV-1) was > 100 µM (inactive), the GI50 (K562) was 68.5 µM (inactive) and the GI50 (LOX IMVI) was > 100 µM (inactive). The GI50 (LXFL 529) was > 100 µM (inactive), the GI50 (M14) was > 100 µM (inactive) and the GI50 (M19-MEL) was > 100 µM (inactive). The GI50 (MOLT-4) was 90.6 µM (inactive), the GI50 (Malme-3M) was 91.8 µM (inactive) and the GI50 (NCI-H226) was > 100 µM (inactive). For the same molecule, the GI50 (NCI-H23) was > 100 µM (inactive), the GI50 (NCI-H460) was > 100 µM (inactive) and the GI50 (OVCAR-3) was 97.3 µM (inactive). For the same molecule, the GI50 (OVCAR-4) was > 100 µM (inactive), the GI50 (OVCAR-5) was > 100 µM (inactive) and the GI50 (OVCAR-8) was > 100 µM (inactive). The GI50 (RPMI-8226) was > 100 µM (inactive), the GI50 (RXF 631) was > 100 µM (inactive) and the GI50 (SF-268) was > 100 µM (inactive). For the same molecule, the GI50 (SF-295) was > 100 µM (inactive), the GI50 (SK-MEL-28) was > 100 µM (inactive) and the GI50 (SK-MEL-5) was 54.1 µM (inactive). For the same molecule, the GI50 (SK-OV-3) was > 100 µM (inactive), the GI50 (SN12C) was > 100 µM (inactive) and the GI50 (SNB-19) was > 100 µM (inactive). The GI50 (SR) was 49.9 µM (inactive), the GI50 (SW-620) was > 100 µM (inactive) and the GI50 (TK-10) was > 100 µM (inactive). For the same molecule, the GI50 (U-251) was > 100 µM (inactive), the GI50 (UACC-257) was 44.7 µM (inactive) and the GI50 (UACC-62) was > 100 µM (inactive). The GI50 (UO-31) was > 100 µM (inactive).
In the case of `S=C(Nc1ccccc1)Nc1ccccc1SC(/C=C/NNC1=NN=C(c2ccccc2)C(c2ccccc2)N1)c1ccccc1` (stereo not given), the GI50 (786-0) is reported as 81.5 µM (inactive), the GI50 (A498) is reported as > 100 µM (inactive) and the GI50 (A549) is reported as > 100 µM (inactive). The GI50 (ACHN) was 69.7 µM (inactive), the GI50 (CAKI-1) was > 100 µM (inactive) and the GI50 (CCRF-CEM) was 28.5 µM (inactive). The GI50 (COLO 205) was > 100 µM (inactive), the GI50 (DLD-1) was 79.8 µM (inactive) and the GI50 (DMS-114) was 12.2 µM (inactive). The GI50 (DMS-273) was > 100 µM (inactive), the GI50 (EKVX) was > 100 µM (inactive) and the GI50 (HCC 2998) was 26.4 µM (inactive). The GI50 (HCT-116) was > 100 µM (inactive), the GI50 (HCT-15) was over 100 µM and the GI50 (HL-60) was 10.4 µM (inactive). For the same molecule, the GI50 (HOP-62) was 16.7 µM (inactive), the GI50 (HOP-92) was 3.97 µM (inactive) and the GI50 (HT-29) was > 100 µM (inactive). The GI50 (IGROV-1) was > 100 µM (inactive), the GI50 (K562) was 64.9 µM (inactive) and the GI50 (KM-20L2) was > 100 µM (inactive). The GI50 (KM12) was > 100 µM (inactive), the GI50 (LOX IMVI) was > 100 µM (inactive) and the GI50 (M14) was > 100 µM (inactive). For the same molecule, the GI50 (M19-MEL) was > 100 µM (inactive), the GI50 (MOLT-4) was 13.4 µM (inactive) and the GI50 (Malme-3M) was > 100 µM (inactive). For the same molecule, the GI50 (NCI-H460) was > 100 µM (inactive), the GI50 (NCI-H522) was 8.85 µM (inactive) and the GI50 (OVCAR-3) was > 100 µM (inactive). For the same molecule, the GI50 (OVCAR-4) was 5.68 µM (inactive), the GI50 (OVCAR-5) was > 100 µM (inactive) and the GI50 (OVCAR-8) was > 100 µM (inactive). For the same molecule, the GI50 (RPMI-8226) was 59 µM (inactive), the GI50 (RXF 393) was 8.02 µM (inactive) and the GI50 (RXF 631) was > 100 µM (inactive). The GI50 (SF-268) was > 100 µM (inactive), the GI50 (SF-295) was 69.3 µM (inactive) and the GI50 (SF-539) was 83.9 µM (inactive). For the same molecule, the GI50 (SK-MEL-28) was > 100 µM (inactive), the GI50 (SK-MEL-2) was > 100 µM (inactive) and the GI50 (SK-MEL-5) was 44.6 µM (inactive). The GI50 (SK-OV-3) was > 100 µM (inactive), the GI50 (SN12C) was > 100 µM (inactive) and the GI50 (SNB-19) was > 100 µM (inactive). The GI50 (SNB-78) was > 100 µM (inactive), the GI50 (SW-620) was > 100 µM (inactive) and the GI50 (TK-10) was > 100 µM (inactive). For the same molecule, the GI50 (U-251) was > 100 µM (inactive), the GI50 (UACC-62) was > 100 µM (inactive) and the GI50 (XF498) was > 100 µM (inactive).
